Where a name gives a salt, the structure may show the parent alone. Read-outs that look alike come from different tables or passages of the source.
Key:
[1] = tested on: MDA-MB-468 cells; experiment: Long-term growth assay, MDA-MB-468; type: cell-based; details: MDA-MB-468, 1 μM, 10 days, crystal violet
Text: At the end of the assay, media was removed from the cells and the remaining cells were stained with crystal violet.

[2] = tested on: MDA-MB-157; experiment: Cell proliferation assay, MDA-MB-157; type: cell-based; details: Homo sapiens; MDA-MB-157, type BaB, 72 h
Description: (§1) The cells were seeded at 5×10^3 to 1.5×10^4 cells (depending on cell type) in each well of a 96-well plate in 100 μL of fresh culture medium and adherent cells were allowed to attach overnight. The stock solutions of the compounds were diluted in cell culture medium to obtain eight concentrations of each drug, ranging from 1 nM to 30 μM and DMSO at less than 1% v/v was used as a negative control. The resulting drug solutions were transferred onto the cells. After 72 h of treatment, 20 μl of CellTiter 96® AQueous reagent was added into each well of the 96-well assay plates and the plate was incubated at 37° C. for 1-4 hours in a humidified, 5% CO2 atmosphere. Then the absorbance of each well was recorded at 490 nm using a 96-well plate reader. In most cases, the assay was performed in triplicate and the results were presented as half maximal inhibitory concentration (IC50).

[3] = tested on: HCC-1569; experiment: Cell proliferation assay, HCC-1569; type: cell-based; details: Homo sapiens, HCC1569; HCC-1569, type BaA, 72 h
Description: as §1

[4] = tested on: MCF10A; experiment: Cell proliferation assay, MCF10A; type: cell-based; details: Homo sapiens, MCF-10A, type BaB, 72 h
Description: as §1

[5] = tested on: UACC812; experiment: Cell proliferation assay, UACC812; type: cell-based; details: Homo sapiens, UACC-812; UACC812, type Lu, 72 h
Description: as §1

[6] = tested on: HCC-1428; experiment: Cell proliferation assay, HCC-1428; type: cell-based; details: Homo sapiens, HCC1428; HCC-1428, type Lu, 72 h
Description: as §1

[7] = tested on: HS578T cells; experiment: Anti-apoptosis and cell cycle proteins immunoblot, HS578T; type: cell-based; details: increasing concentrations, 24 hours
[8] = tested on: MDA-MB-468 triple negative breast cancer cells; details: oral, day 33 post inoculation
Description: MDA-MB-468 (ATCC #HTB-132)triple negative breast cancer cells were obtained from ATCC. These cells were grown in Leibovitz's L-15 medium supplemented with 10% fetal calf serum (FCS), 1% penicillin and streptomycin, and 2 mM L-glutamine. Cells were sub-cultured by dilution at a ratio of 1:3. Fifty (50) female SCID mice (Charles River Labs), aged 5 to 6 weeks, with a mean pre-treatment body weight of 19.2 grams were used. SCID mice were inoculated s.c. in the left flank with 5×10^6 MDA-MB-468 cells. When the tumors reached a mean size of between 100 and 200 mm^3, mice were randomly and prospectively divided into a vehicle control group of ten (10) mice and five treatment groups of eight (8) mice per group.
All administrations were via the oral route. Animals were fed with sterile Labdiet® 5053 (pre-sterilized) rodent chow and sterile water was provided ad libitum. Tumors were measured once every two days with micro-calipers, and tumor volume was calculated as (length×width×width)/2. All animals were weighed every day in order to assess differences in weight among treatment groups and monitor wellness of animals. […] Any animals with a tumor over 1500 mm^3 in volume were also euthanized. Survival was recorded daily. […] Statistical differences between treatment groups were determined using Mann-Whitney Rank Sum or ANOVA tests with a critical value of 0.05.

[9] = tested on: DU4475 luminal BC cells; experiment: Apoptosis marker immunoblot, DU4475; type: cell-based; details: DU4475, 0 to 10 μM, 24 hours
Description: MDA-MB-468 TNBC, DU4475 and HS578T TNBC cells were exposed to concentrations of Compound 1-3 ranging from 0 to 10 μM for 24 hours. After 24 hours, whole protein cell extracts were run on immunoblots and were exposed to antibodies against the proteins indicated in FIGS. 2A-2C.

[10] = tested on: BT-20 TNBC Basal B cells; experiment: Nuclear localization of FOXO3a and IκB, BT-20; type: cell-based; details: BT-20, 1 μM, 24 hours
Description: MDA-MB-468 TNBC Basal A and BT-20 TNBC Basal B cells were exposed to DMSO or 1 μM Compound 1-3 for 24 hours and then stained for FOXO3a or IκB with or without DAPI nuclear stain. The stained cells were examined for nuclear localization.

[11] = tested on: antibody-induced male BALB/c arthritic mice; experiment: Monoclonal-antibody induced arthritis (CAIA); type: in vivo; details: 4, 7.5, 15 mg/kg PO, Day 4, 6, 8, 10
Description: The health status of the animals was examined on arrival. Only animals in good health were acclimatized to laboratory conditions and were used in the study. Animals were provided ad libitum a commercial rodent diet and free access to drinking water, supplied to each cage via polyethylene bottles with stainless steel sipper tubes. Automatically controlled environmental conditions were set to maintain temperature at 20-24° C. with relative humidity (RH) of 30-70%, a 12:12 hour light:dark cycle and 10-30 air changes/hr in the study room Temperature, RH and light cycle were monitored daily by the control computer. Animals were given a unique animal identification number and on Day 0 of the study each animal received a tail vein injection of antibody cocktail (200 uL of 10 mg/mL). The antibody cocktail was supplied by MD Biosciences (Catalog #: CIA-MAB-50). On day 3, post the single mAb administration, all animals were subjected to LPS (200 uL of 0.5 mg/mL) administration by a single intraperitoneal (IP) injection. […]
Animals found in a moribund condition, animals with broken skin on an arthritic paw, or with a greater than a 20% decrease in body weight and animals showing severe pain and enduring signs of severe distress were humanely euthanized. Severe pain or distress was assessed on a case by case basis by experienced animal technicians. […]

Row | SMILES | long-term growth [1] | IC50 [2] | IC50 [3] | IC50 [4] | IC50 [5] | IC50 [6] | MCL-1 protein level [7] | inhibition of tumor growth compared with vehicle-treated animals ([8]; 5 mg/kg Monday, Wednesday, Friday) | inhibition of tumor growth compared with vehicle-treated animals ([8]; 25 mg/kg Monday, Thursday regimen) | apoptosis (PARP, caspase 3, cleaved PARP, cleaved caspase 3) [9] | localization of FOXO3a and IκB [10] | mean body weight (rate of weight gain) ([11]; compared to vehicle or dexamethasone) | mean total paw clinical arthritic score ([11]; compared with vehicle)
1 | O=C(/C=C\n1cnc(-c2cc(C(F)(F)F)cc(C(F)(F)F)c2)n1)NNc1cnccn1 [Compound I-3, (Z)-3-(3-(3,5-bis(trifluoromethyl)phenyl)-1H-1,2,4-triazol-1-yl)-N′-(pyrazin-2-yl)acrylohydrazide] | inhibited the long-term growth | 1300 nM | 960 nM | 180 nM | 590 nM | 10.4 µM | a reduction in MCL-1 is observed | approximately 60% | ~100% | induces apoptosis | both FOXO3a and IκB were localized in the cell nucleus | – | –
2 | O=C(/C=C\n1cnc(-c2cc(C(F)(F)F)cc(C(F)(F)F)c2)n1)NNc1ccccn1 [Compound I-4, (Z)-3-(3-(3,5-bis(trifluoromethyl)phenyl)-1H-1,2,4-triazol-1-yl)-N′-(pyridin-2-yl)acrylohydrazide hydrochloride] | – | – | – | – | – | – | – | – | – | – | – | increased the rate of weight gain | significantly decreased the total score
